97 molecules from PubChem BioAssay AID2423 (Broad Institute, 2010) can be followed below.

Values joined by “and” are separate entries in the source; they are usually repeats but may differ in a detail not shown here. Equal entries are not always repeated. Results filed as inconclusive are left out. Active and inactive are the calls of the source. How the calls were made is not given here.

The experiment relates to C. albicans CaCi-8 + fluconazole, Alamar Blue growth, 48 h. Nature of the experiment: resistant C. albicans growth inhibition with fluconazole, dose response, CaCi-8 strain, Alamar Blue fluorescence (AID 2423).

As for `NC(N)=N/N=C/c1ccc(N(c2ccccc2)c2ccccc2)cc1`, the EC50 is > 15 µM (inactive).
In the case of `CCc1ccc2c(c1)/C(=C/C(=O)c1cccs1)C(=O)N2` it was 2.38 µM.
Regarding `c1ccc(CSc2nnc(-c3cccs3)n2Cc2ccco2)cc1`, the EC50 is 4.72 µM.
With `CCCCCc1ccc(-c2ccc(/C=C/C(=O)O)cc2)nc1` the figure was 0.957 µM.
`CCCCC(=O)NNC(=S)NC(=O)c1ccc(C)cc1`: the 50% effective concentration (EC50) is 7.76 µM.
With `CCCS(=O)(=O)c1nnnn1-c1cccc(OC)c1` the figure was > 15 µM (inactive).
With `CCOC(=O)c1[nH]c2ccc(F)cc2c1NC(=O)c1ccccc1C(=O)O` the figure was > 15 µM (inactive); with `CC(=O)Nc1cccc(-c2csc(Nc3ccc(C)cn3)n2)c1`, 2.26 µM.
With `O=C(Oc1ccc(Cl)c2cccnc12)c1cccc([N+](=O)[O-])c1` the figure was 12.3 µM; with `Cc1ccc(S(=O)(=O)/N=C(/c2ccccc2)N2CCOCC2)c(C)c1`, > 16 µM (inactive).
In the case of `COc1cccc(/C=N/Nc2ncnc3scc(-c4ccccc4)c23)c1O`, the EC50 was 1.19 µM.
In the case of `CSCCC1NC2(C(=O)Nc3c(C)cc(Cl)cc32)[C@@H]2C(=O)N(C3CCCC3)C(=O)[C@H]12` (some centres not stated) it was 10.1 µM.
With `COc1cc([N+](=O)[O-])cc(/C=N/NC(=O)c2cc(-c3ccccc3)nc3ccccc23)c1O` the figure was 1.54 µM; with `Cc1ccc(C2C3=C(CC(C)(C)CC3=O)N=C3c4ccccc4C(=O)C32)cc1` (configuration not stated), 0.769 µM; with `Cc1c(N=NC2=C(O)CC(C)(C)CC2=O)c(=O)n(-c2ccccc2)n1C`, 14 µM.
In the case of `O=C(NNC(=O)c1ccc2ccccc2c1O)c1ccccc1Cl`, the concentration for a half-maximal effect (EC50) is 6.11 µM.
With `NC(=O)c1c(NC(=O)c2ccncc2)sc2c1CCCC2` the figure was 3.45 µM.
With `Oc1ccc(N=Nc2ccc3c(c2)OCCO3)c2ncccc12` the figure was 0.709 µM; with `CC(=O)NC(c1ccccc1)c1cc(Cl)c2cccnc2c1O` (configuration not stated), 0.764 µM; with `CCOc1ccc(-n2c(C)cc(C(=O)CCl)c2C)cc1`, 5.79 µM.
With `O=c1c2cc(Br)ccc2nc(-c2ccc([N+](=O)[O-])cc2)n1O` the figure was 1.14 µM; with `C=CCOC(=O)c1sc(NC(=O)c2ccco2)nc1C`, 0.348 µM; with `C(#Cc1ccccc1)C[N+]1(CC#Cc2ccccc2)CCCCC1`, 10.5 µM.
With `O=C(CCS(=O)(=O)c1cccc2nsnc12)N1CCN(C(=O)c2ccco2)CC1`, the EC50 is > 16 µM (inactive).
In the case of `C/C(=N\NC(=O)c1nn(C)c(C)c1Br)c1ccc(NC(=O)C2CCCC2)cc1` it was > 15 µM (inactive); in that of `CC(C)NC(=S)N/N=C/c1ccc(C(C)(C)C)cc1`, > 16 µM (inactive); in that of `NS(=O)(=O)c1cccc(NC(=S)NCc2ccc3c(c2)OCO3)c1`, > 16 µM (inactive).
In the case of `NC(=NCCCCCCN=C(N)/N=C(\N)Nc1ccc(Cl)cc1)/N=C(\N)Nc1ccc(Cl)cc1` it was 0.741 µM and 1.51 µM and 2.13 µM; in that of `CCC(=O)N1c2ccc(S(=O)(=O)CCC(=O)N3CCn4c3nc3ccccc34)cc2CC1C` (configuration not stated), 1.12 µM.
With `CCCCOP(=O)(c1ccc(N(C)C)cc1)C(O)c1ccccc1F` (configuration not stated), the EC50 is 4.66 µM.
As to `O=C(N/N=C/c1cc2c3c(c1O)CCCN3CCC2)c1ccccc1O`, the EC50 is 0.895 µM.
In the case of `CO/N=C/c1ccc(N2CCN(C(=O)c3ccc(C)cc3)CC2)c([N+](=O)[O-])c1` it was 2.1 µM; in that of `CC(C)(C)c1ccc(C(=O)NC(=S)NNC(=O)COc2ccccc2)cc1`, 2.11 µM.
With `CCn1c(=O)c(C(=O)NCc2cccnc2)c(O)c2ccccc21` the figure was 9.52 µM; with `O=[N+]([O-])c1ccc(C2CCCC/C2=N/OCc2ccc(F)cc2)c([N+](=O)[O-])c1` (configuration not stated), > 16 µM (inactive); with `COc1cc(/C=C(\C#N)c2nc3ccccc3s2)cc([N+](=O)[O-])c1O`, > 15 µM (inactive).
In the case of `O=C(NNC(=O)c1cc2ccccc2cc1O)c1cccs1` it was > 15 µM (inactive).
As for `O=C(/C=C1\NC2(CCCC2)Cc2ccccc21)C(=O)N/N=C/c1ccccc1O`, the EC50 is 0.601 µM.
With `CC(C)Cc1nc2oc3c(=O)[nH]cnc3c2c2c1CCCC2` the figure was 0.297 µM; with `Oc1c(C(c2ccccc2Cl)N2CCCC2)ccc2cccnc12` (configuration not stated), 1.25 µM; with `COc1ccc(C(=O)N/N=C(\Cc2ncc[nH]2)c2ccccc2)cc1`, > 16 µM (inactive).
Consider `Cc1cc2ccccn2c1C(C[N+](=O)[O-])c1c(F)cccc1Cl` (configuration not stated), for which the EC50 is 0.382 µM.
In the case of `CC(=O)N1CCOCCOCCN(C(C)=O)CCOCCOCC1` it was > 15 µM (inactive); in that of `O=C(Oc1c(CN2CCOCC2)cc(Cl)c2cccnc12)c1ccccc1Cl`, 2.42 µM; in that of `CCc1ccccc1NC(=S)NNC(=O)c1ccccc1Cl`, 0.823 µM.
With `CCOC(=O)c1ccccc1NC(=O)c1cccc([N+](=O)[O-])c1` the figure was > 15 µM (inactive); with `NC1=NC[C@H](Cc2ccccc2)N1CCCCC1CCCCC1`, 7.38 µM; with `CN1C(=O)/C(=C/c2cn(CC(=O)N3CCCCC3)c3ccccc23)NC1=S`, > 15 µM (inactive).
With `NS(=O)(=O)c1ccc(N=Nc2ccc(O)c3ncccc23)cc1` the figure was 1.38 µM; with `Oc1c(C(Nc2cccc(C(F)(F)F)c2)c2ccncc2)ccc2cccnc12` (configuration not stated), 2.44 µM.
Turning to `CC(C)n1c(N2CCN(C(=O)Nc3ccc(Cl)cc3)CC2)nc2ccccc21`, the EC50 is > 15 µM (inactive).
In the case of `CCc1nnc(NC(=O)CSc2nnc(CNc3cccc(C)c3)n2-c2ccccc2)s1` it was > 15 µM (inactive); in that of `COc1ccc(/C=C2\N=C(SC)NC2=O)cc1`, 3.75 µM; in that of `O=C(NNC(=O)c1ccccc1O)c1ccc(-c2ccc([N+](=O)[O-])cc2)o1`, > 15 µM (inactive).
In the case of `CCCCN(C)S(=O)(=O)c1ccc(C(=O)Nc2nnc(-c3ccco3)o2)cc1` it was > 16 µM (inactive); in that of `C=CCc1cccc(/C=N/NC(=O)CNc2cccc3ccccc23)c1O`, 3.11 µM.
With `COc1ccc(C(=O)NC(=S)NNC(=O)c2ccc(C)cc2)cc1` the figure was 2.41 µM; with `Cc1ccc2nc(-c3ccc(NC(=S)NC4CC(C)(C)NC(C)(C)C4)cc3)sc2c1`, 1.9 µM; with `CC(=O)c1ncnn1CC(=O)c1ccc(Cl)cc1Cl`, > 16 µM (inactive).
`CC(NC(=O)Nc1ccccc1F)C(C)(C)C` (configuration not stated): the EC50 was > 16 µM (inactive).
In the case of `COc1ccc(/C=N/OCC(=O)Nc2nc3ccccc3s2)cc1` it was 3.05 µM.
With `CC(C)CCOC(=O)C[N+](C)(C)CCOC1CC2CCC1(C)C2(C)C` (configuration not stated) the figure was 3.05 µM.
As for `CCCn1c(Nc2nc3ccccc3n2C)nc2ccccc21`, the EC50 was 1.17 µM.
In the case of `O=C(NCc1ccco1)c1ccccc1NS(=O)(=O)c1ccc(Br)s1` it was > 16 µM (inactive).
With `COc1ccccc1N1CCN(C(=O)c2cc3cc(Cl)ccc3[nH]2)CC1` the figure was > 15 µM (inactive); with `COc1ccc(C(=O)NC(=S)NNC(=O)c2cnccn2)cc1`, 3.54 µM.
With `Fc1cccc2sc(Nc3nnc(-c4ccco4)o3)nc12` the figure was > 15 µM (inactive).
With `Cc1cc(C)n(-c2nc3ccccc3c(=O)n2OCC#N)n1`, the EC50 was 0.456 µM.
In the case of `O=C(N/N=C/c1sc(N2CCCCC2)nc1-c1cccs1)c1cccnc1` it was 1.47 µM.
In the case of `O=C(CCc1ccccc1)NNC(=S)NC(=O)c1ccc(Cl)cc1` it was 1.99 µM; in that of `CCOC(=O)C(CC)/C(C)=N\NC(=O)c1ccccc1O` (configuration not stated), 7.82 µM; in that of `Cc1ccc(-n2nc(C)c3c(C)cc(=O)[nH]c32)cc1`, 2.08 µM.
Regarding `Cc1nn2c([nH]c(=O)c3ccccc32)c1C=O`, the EC50 was 0.961 µM.
With `O=C(Nc1cccc(F)c1)c1ccc2ncsc2c1` the figure was 2.35 µM.
For the molecule `COc1cccc(/C=N/NC(=O)c2cc(-c3cccn3C)n[nH]2)c1O`, the concentration for a half-maximal effect (EC50) is 5.64 µM.
Take `Nc1ncnc2c1ncn2[C@@H]1O[C@H](CO)C[C@H]1O`: the EC50 was > 15 µM (inactive).
With `COc1ccc(-c2c[n+]3c(n2-c2ccccc2)CCCCC3)cc1` the figure was 9.58 µM; with `CN1/C(=C/C(=O)c2cccs2)Sc2ccccc21`, 0.841 µM; with `CCN(CC)S(=O)(=O)c1ccc(N/N=C(\C)c2ccc(OC)cc2O)nc1`, > 16 µM (inactive).
With `O=C(O)c1ccc(-c2nc(-c3ccc(Cl)cc3)cs2)cc1` the figure was 3.42 µM.
With `O=C(N/N=C\C=C\c1ccc([N+](=O)[O-])o1)c1cccs1`, the EC50 is > 16 µM (inactive).
With `Cc1nc2sc(C(c3cccc(F)c3)N3CCCC(C)C3)c(O)n2n1` (configuration not stated) the figure was 0.798 µM; with `CCCC(=O)NC(c1ccc(C)cc1)c1ccc2cccnc2c1O` (configuration not stated), 0.715 µM.
With `CCc1cc(C(=O)NNC(=S)Nc2cc(C)ccc2C)cs1` the figure was 0.422 µM; with `Cc1cc(N2C(=O)C(O)=C(C(=O)c3cc4ccccc4o3)C2c2cccs2)no1` (configuration not stated), 4.08 µM.
In the case of `COc1ccc(C2c3ccc4ccccc4c3Oc3ncn(CCN4CCOCC4)c(=N)c32)cc1` (configuration not stated) it was 1.18 µM; in that of `O=C1c2ccccc2NC(c2cn[nH]c2-c2ccc(Cl)cc2)N1O` (configuration not stated), > 16 µM (inactive); in that of `COc1cccc(COc2cc3ccccc3nc2C)c1`, 1.05 µM.
For `C/C(=N\NC(=O)c1cc(C2CC2)nc2ccccc12)c1ccc(O)cc1O`, the EC50 is 2.12 µM.
As to `O=c1c2ccccc2nc(-c2ccc([N+](=O)[O-])cc2)n1O`, the EC50 was 6.52 µM.
In the case of `O=C(O)c1ccc(CN2C(=O)CSC2=S)cc1` it was > 15 µM (inactive).
In the case of `CC(=O)N(Cc1ccc(F)cc1)C1=C(NCCc2ccccc2)C(=O)c2ccccc2C1=O`, the EC50 is 0.33 µM.
With `Cc1nn(C)c(C)c1/C=C/C(=O)c1ccc(Cl)cc1Cl` the figure was 1.64 µM; with `Cc1ccc2occ(/C=N/NC(=O)c3ccccc3O)c(=O)c2c1`, 15.1 µM.
With `CCN1/C(=C/c2sc(-c3ccccc3C)c[n+]2C)Sc2ccccc21` the figure was 0.289 µM; with `Oc1c(C(Nc2nc3ccccc3s2)c2ccco2)ccc2cccnc12` (configuration not stated), 1.98 µM; with `CCNc1nc(N)nc(-c2cc(Cl)ccc2O)n1`, 1.9 µM.
